Laboratory results published in US8273752B2, “Substituted imidazopyrimidines and triazolopyrimidines” (Bayer Intellectual Property GmbH, priority 2007, dated 2012).
Structures can show the parent of a compound that is named as a salt.

Target: T1, GSK3β (Homo sapiens, UniProt P49841)
T1 construct: purchased Upstate xy
Assay: GSK3β biochemical in vitro assay (fluorescence, NADH-coupled)
Details: 5 nM GSK3β, 40 μM substrate GSM, 50 μM ATP, 30° C., 2 hours
Protocol: The inhibitory activity of active substances is determined in a biochemical assay. The ingredients required for this purpose are mixed in a black 384-well microtitre plate with transparent base (from Greiner, catalogue number 781092). The requirements in this connection for each well of the 384-well microtitre plate are 5 nM GSK3β (from Upstate, catalogue number xy), 40 μM GSK3B substrate GSM (sequence H-RRRPASVPPSPSLSRHS-(pS)-HQRR, from Upstate, catalogue number 2-533), 30 μM nicotinamide adenine dinucleotide NADH (Roche Diagnostics, catalogue number 10107735), 50 μM adenosine triphosphate ATP (from Sigma, catalogue number A7966), and 2 mM phosphoenolpyruvate (from Roche, catalogue number 128112). The required reaction buffer in which the biochemical reaction takes place consists of 50 mM Trizma hydrochloride tris-HCl pH: 7.5 (from Sigma, catalogue number T3253), 5 mM magnesium chloride MgCl2 (from Sigma, catalogue number M8266), 0.2 mM DL-dithiothreitol DTT (from Sigma, catalogue number D9779), 2 mM ethylenediaminethertetraacid EDTA (from Sigma, catalogue number E6758), 0.01% Triton X-100 (from Sigma, catalogue number T8787) and 0.05% bovine serum albumin BSA (from Sigma, catalogue number B4287).
Active substances are dissolved in dimethyl sulphoxide DMSO (from Sigma, catalogue number D8418) in a concentration of 10 mM. Active substances are added in serial concentrations of 10 μM, 1 μM, 0.1 μM, 0.01 μM, 0.001 μM, 0.0001 μM, 0.00001 μM, 0.000001 μM to the mixtures of the biochemical reaction. As control, dimethyl sulphoxide is added instead of substance in a final concentration of 0.1%.
The reaction is incubated at 30° C. for 2 hours and then the resulting fluorescence is measured in a Tecan Safire-XFLUOR4 instrument, version V4.50 (serial number 12901300283) with the specifications: measurement mode—fluorescence measured from below, extinction wavelength 340 nm, emission wavelength 465 nm, slit width extinction 5 nm, slit width emission 5 nm, gain mode 120, delay 0 μs, number of light flashes per measurement 3, and an integration time of 40 μs.
The activity of the active substances is calculated in relation to these 0% and 100%.

T1 sequence (P49841 whole entry, species assumed): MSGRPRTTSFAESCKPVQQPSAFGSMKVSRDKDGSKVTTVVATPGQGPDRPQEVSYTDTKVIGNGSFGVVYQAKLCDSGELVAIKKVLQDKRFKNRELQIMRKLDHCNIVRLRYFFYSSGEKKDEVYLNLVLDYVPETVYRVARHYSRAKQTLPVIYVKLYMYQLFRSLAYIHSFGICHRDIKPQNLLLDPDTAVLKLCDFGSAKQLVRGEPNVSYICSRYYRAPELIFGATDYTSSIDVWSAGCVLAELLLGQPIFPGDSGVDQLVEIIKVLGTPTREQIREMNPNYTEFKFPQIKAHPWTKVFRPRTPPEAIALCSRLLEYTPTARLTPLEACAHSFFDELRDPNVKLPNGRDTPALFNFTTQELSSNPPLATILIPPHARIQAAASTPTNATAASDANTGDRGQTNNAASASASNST

IC50 [µM] | SMILES
0.022 | N#Cc1ccc(NC2CCCN(c3nc(-c4ccc(Cl)cc4Cl)cc4nccn34)C2)nc1 (single isomer, unassigned) [Ent. B 123, 6-({1-[7-(2,4-dichlorophenyl)imidazo[1,2-c]pyrimidin-5-yl]piperidin-3-yl}amino)pyridine-3-carbonitrile trifluoroacetate]
0.034 | N#Cc1ccc(NCCNc2nc(-c3ccc(Cl)cc3Cl)cc3nccn23)nc1 [Example 1, 6-[(2-{[7-(2,4-Dichlorophenyl)imidazo[1,2-c]pyrimidin-5-yl]amino}ethyl)amino]nicotinonitrile]
0.005 | Nc1nc(NCCNc2nc(-c3ccc(Cl)cc3Cl)cc3nccn23)ccc1[N+](=O)[O-] [Example 4, N^6-(2-{[7-(2,4-Dichlorophenyl)imidazo[1,2-c]pyrimidin-5-yl]amino}ethyl)-3-nitropyridine-2,6-diamine]
0.015 | N#Cc1sc(NCCNc2nc(-c3ccc(Cl)cc3Cl)cc3nccn23)nc1N [Example 5, 4-Amino-2-[(2-{[7-(2,4-dichlorophenyl)imidazo[1,2-c]pyrimidin-5-yl]amino}ethyl)amino]-1,3-thiazole-5-carbonitrile]
0.044 | O=[N+]([O-])c1ccc(NCCNc2nc(-c3ccc(Cl)cc3Cl)cc3nccn23)nc1 [Example 6, N-[7-(2,4-Dichlorophenyl)imidazo[1,2-c]pyrimidin-5-yl]-N′-(5-nitropyridin-2-yl)ethane-1,2-diamine]
0.183 | N#Cc1ccc(NCCNc2nc(-c3ccc(C(F)(F)F)cc3)cc3nccn23)nc1 [Example 7, 6-{[2-({7-[4-(Trifluoromethyl)phenyl]imidazo[1,2-c]pyrimidin-5-yl}amino)ethyl]amino}-nicotinonitrile]
0.178 | CC(C)(C)c1ccc(-c2cc3nccn3c(NCCNc3ccc(C#N)cn3)n2)cc1 [Example 8]
0.148 | Nc1nc(NCCNc2nc(-c3ccc(OC(F)(F)F)cc3)cc3nccn23)ccc1[N+](=O)[O-] [Example 32]
0.015 | Cc1cc(C)cc(-c2cc3nccn3c(NCCNc3ccc([N+](=O)[O-])c(N)n3)n2)c1 [Example 36]
0.023 | Cc1cccc(-c2cc3nccn3c(NCCNc3ccc([N+](=O)[O-])c(N)n3)n2)c1C [Example 38]
0.023 | Cc1cc(F)ccc1-c1cc2nccn2c(NCCNc2ccc([N+](=O)[O-])c(N)n2)n1 [Example 39]
0.024 | Cc1cccc(-c2cc3nccn3c(NCCNc3ccc([N+](=O)[O-])c(N)n3)n2)c1 [Example 40]
0.081 | Nc1nc(NCCNc2nc(-c3ccc(F)c(Cl)c3)cc3nccn23)ccc1[N+](=O)[O-] [Example 53]
0.091 | CCOc1ccc(-c2cc3nccn3c(NCCNc3ccc([N+](=O)[O-])c(N)n3)n2)cc1 [Example 56]
0.093 | Nc1nc(NCCNc2nc(-c3ccccc3)cc3nccn23)ccc1[N+](=O)[O-] [Example 57]
0.173 | CC(C)Cn1cc(-c2cc3nccn3c(NCCNc3ccc([N+](=O)[O-])c(N)n3)n2)cn1 [Example 63]
0.188 | CCCCc1ccc(-c2cc3nccn3c(NCCNc3ccc([N+](=O)[O-])c(N)n3)n2)cc1 [Example 65]
0.196 | Nc1nc(NCCNc2nc(-c3ccc(C(F)(F)F)cc3)cc3nccn23)ccc1[N+](=O)[O-] [Example 66]

IC50 [µM] | SMILES
0.017 | Cc1cn2c(NCCNc3ccc([N+](=O)[O-])c(N)n3)nc(-c3ccc(Cl)cc3Cl)cc2n1 [Example 77, N^6-(2-{[7-(2,4-Dichlorophenyl)-2-methylimidazo[1,2-c]pyrimidin-5-yl]amino}ethyl)-3-nitropyridine-2,6-diamine]
0.008 | Nc1nc(NCCNc2nc(-c3ccc(Cl)cc3Cl)cc3nc(CN4CCOCC4)cn23)ccc1[N+](=O)[O-] [Example 81, N^6-(2-{[7-(2,4-Dichlorophenyl)-2-(morpholin-4-ylmethyl)imidazo[1,2-c]pyrimidin-5-yl]amino}ethyl)-3-nitropyridine-2,6-diamine trifluoroacetate]
0.072 | N#Cc1ccc(NCCNc2nc(-c3ccc(C(F)(F)F)cc3)cc3ncnn23)nc1 [Example 93, 6-{[2-({7-[4-(Trifluoromethyl)phenyl][1,2,4]triazolo[1,5-c]pyrimidin-5-yl}amino)ethyl]amino}-nicotinonitrile]
0.089 | CN1CCN(C(=O)c2cn3c(NCCNc4ccc(C#N)cn4)nc(-c4ccc(Cl)cc4Cl)cc3n2)CC1 [Example 111]
0.054 | CN(C)CCNC(=O)c1cn2c(NCCNc3ccc(C#N)cn3)nc(-c3ccc(Cl)cc3Cl)cc2n1 [Example 112]
0.041 | CN1CCN(CCNC(=O)c2cn3c(NCCNc4ccc(C#N)cn4)nc(-c4ccc(Cl)cc4Cl)cc3n2)CC1 [Example 113]
0.005 | N#Cc1ccc(NCCNc2nc(-c3ccc(Cl)cc3Cl)cc3nc(C(=O)NCC(=O)O)cn23)nc1 [Example 115]
0.094 | N#Cc1ccc(NCCNc2nc(-c3ccc(C(F)(F)F)cc3)cc3nc(C(=O)NCCO)cn23)nc1 [Example 117]
0.124 | N#Cc1ccc(NCCNc2nc(-c3ccc(C(F)(F)F)cc3)cc3nc(C(=O)NC(CO)CO)cn23)nc1 [Example 120]
0.003 | CC(=O)c1sc(NC2CCCN(c3nc(-c4ccc(Cl)cc4Cl)cc4nccn34)C2)nc1N (stereo not drawn) [Example 128, 1-[4-amino-2-({1-[7-(2,4-dichlorophenyl)imidazo[1,2-c]pyrimidin-5-yl]piperidin-3-yl}amino)-1,3-thiazol-5-yl]ethanone trifluoroacetate]
0.007 | Nc1nc(NCCNc2nc(-c3ccc(Cl)cc3Cl)cc3nccn23)sc1C(=O)C(F)(F)F [Example 129]
0.006 | Nc1nc(NCCNc2nc(-c3ccc(Cl)cc3Cl)cc3nccn23)sc1C(=O)C1CC1 [Example 131]
0.022 | COC(=O)c1sc(NCCNc2nc(-c3ccc(Cl)cc3Cl)cc3nccn23)nc1N [Example 134]
0.005 | CC(=O)c1sc(NCCNc2nc(-c3ccc(Cl)cc3Cl)cc3nccn23)nc1N [Example 137]
0.062 | N#Cc1ccc(NCCNc2nc(-c3ccc(Cl)cc3Cl)cc3nc(CN4CCOCC4)cn23)nc1 [Example 145, 6-[(2-{[7-(2,4-Dichlorophenyl)-2-(morpholin-4-ylmethyl)imidazo[1,2-c]pyrimidin-5-yl]amino}-ethyl)amino]pyridine-3-carbonitrile trifluoroacetate]
0.024 | CN(C)Cc1cn2c(NCCNc3ccc([N+](=O)[O-])c(N)n3)nc(-c3ccc(Cl)cc3Cl)cc2n1 [Example 147, N^6-[2-({7-(2,4-Dichlorophenyl)-2-[(dimethylamino)methyl]imidazo[1,2-c]pyrimidin-5-yl}amino)-ethyl]-3-nitropyridine-2,6-diamine trifluoroacetate]
0.012 | N#Cc1ccc(NCCNc2nc(-c3ccc(Cl)cc3Cl)cc3nccn23)nc1N [Example 148, 2-Amino-6-[(2-{[7-(2,4-dichlorophenyl)imidazo[1,2-c]pyrimidin-5-yl]amino}ethyl)amino]-pyridine-3-carbonitrile]
0.01 | Nc1nc(NCCNc2nc(-c3ccc(Cl)cc3Cl)cc3nccn23)ccc1C(=O)C(F)(F)F [Example 149, 1-{2-Amino-6-[(2-{[7-(2,4-dichlorophenyl)imidazo[1,2-c]pyrimidin-5-yl]amino}ethyl)amino]-pyridin-3-yl}-2,2,2-trifluoroethanone hydrochloride]
